Test results reported in US20140249143A1, “Compounds And Methods For Enhancing Innate Immune Responses” (GlaxoSmithKline LLC, priority 2011, published 2014).

Experiments:
[1] = tested on: HCV replication in 1b HCV replicon cells; experiment: siRNA knockdown of JAK/STAT pathway factors in 1b HCV replicon cells; type: cell-based, Hepatitis C virus; conditions: 2 μM, 30 h, 50 nM siRNA
Method: 50 nM of siRNA against each gene (Dharmacon, on-target SMART pool: L-020209-00-0005 (IFNAR1), L-015411-00-0005 (IFNAR2), L-007981-00-0005 (IL28RA), L-007926-00-0005 (IL10RB), L-011-57-00-0005(IFNGR1), L-012713-00-0005 (IFNGR2), L-003145-00-0005 (JAK1), L-003146-00-0005 (JAK2), L-003182-00-0005 (Tyk2), L-003147-00-0 005 (JAK3), L-003543-00-0005 (STAT1), L-012064-00-0005 (STAT2)) was transfected in the 1b HCV replicon cells using lipofectamine RNAiMax™ (Invitrogen) according to the manufacturer's protocol. A scrambled irrelevant smart pool control siRNA was included as a control (IRR). After 3 days post transfection, the cells were treated with DMSO, IFNα (5 U/ml), IFNγ (100 U/ml), and Example 1 (2 μM) in triplicate for 30 h. The cells were harvested with Bright-Glo (Promega) and the HCV replication was measured by luminescence. […] To measure the efficiency of the knockdown, total RNA was harvested from the siRNA-transfected cells at day 3 post transfection and analyzed by real time RT-PCR.

STAT1 phosphorylation = STAT1 phosphorylation immunoblot in HCV replicon cells; type: cell-based
Method: (§1) IFNα (100 U/ml) and DMSO were included as controls. The total cell lysates were analyzed on a 4-20% SDS-PAGE gradient gel and followed by immunoblotting using anti-phopho STAT1 antibody (Cell Signaling). The level of actin was monitored as a loading control. The bands were visualized by the alkaline phosphatase activity conjugated with the secondary antibody (Promega) using ProtoBlot II AP System™ (Promega).

[2] = tested on: reconstructed human epidermis (RHE) keratinocytes; experiment: JAK/STAT induction in reconstructed human epidermis (western blot, real-time PCR); type: cell-based; conditions: 10 μM (IFN-alpha 100 U/mL), 6 and 72 hrs
Method: First, reconstructed human epidermis (“RHE”) consisting of cultured human keratinocyte cells were incubated in triplicate with media containing either the media alone, media+0.1% DMSO, media containing 10 μM of several putative JAK/STAT activator compounds described herein in Tables 1 and 2 (Example 1, Example 2, Example 11, and compound no. 89 (as a negative control)), or media containing 100 U/mL of a positive control Interferon-alpha (IFN-alpha) recombinant protein at 37° C. in a humidified atmosphere containing 5% CO2, for 6 and 72 hours.
At the end of the incubation period, the RHE tissues were cut into two sections. One section was ¼ of the total size and the second section was […].

[3] = tested on: respiratory syncytial virus (RSV); experiment: RSV plaque assay on HEp-2 cells; type: cell-based
Method: A broad spectrum of antiviral activity of Example 1 was accessed by testing it for potency against other viruses. (See FIG. 8). […] RSV (long form) was inoculated on the layer of HEp-2 cells at multiplicity of infection of <0.001. After 4 hour post infection, the inoculum was replaced with 0.3% agarose containing MEM and various concentration of Example 1 or IFNα. The cells were incubated for up to 5-6 days until the plaques were visible. The cells were then fixed with 3% formaldehyde and stained with neutral red for visualization.

human JAK1 = target: T1, human JAK1 (Homo sapiens, UniProt P23458); experiment: JAK1 reconstitution in U4A and 2fGH cells (phosphor-STAT1 western blot, Taqman mRNA); type: cell-based
T1 construct: expressed in transfected cells; host or cells: U4A cells (JAK1-deficient derivative of the human fibroblast line 2fGH), transduced with a baculovirus mammalian expression system
Method: 2fGH and U4A cells were obtained from the Cleveland Clinic. 2fGH is a human fibroblast cell line and U4A cell line is a derivative 2fGH harboring a defect in JAK1 expression (Muller, et al., Nature 366, 129-135 (1993)). Green fluoroscent protein (GFP) or human JAK1 was transduced in U4A cells by baculovirus mammalian expression system. After 24 hours post transduction, the cells were treated with DMSO, Example 1 (10 μM), IFNα (100 U/ml), IFNβ (100 U/ml), or IFNγ (100 U/ml). Untransduced U4A cells and 2fGH cells were included as controls for 6 or 18 hours. The cells were harvested at indicated time points and used for detecting phosphor-STAT1 by western blot (FIG. 10, panel A) or for mRNA analysis by Taqman quantitation (FIG. 10, panel B).
as §1, with “The” for “IFNα (100 U/ml) and DMSO were included as controls. The”, “system” for “System™”
Gene expression was measured using TaqMan Fast Universal PCR Master Mix (Applied Biosystems) and gene specific probes and murine primers in HT7900 FAST System (Invitrogen). As housekeeping genes, actin and GAPDH were used for normalization. Data was calculated by the ΔΔCt method and fold change determined compared to non-treated control samples.

[4] = tested on: interferon stimulated genes (ISGs); experiment: Expression of interferon stimulated genes in HCV replicon cells (real time RT-PCR); type: cell-based
Source text: The up-regulation of interferon stimulated genes upon treatment with Example 1 was monitored by quantitative real time RT-PCR using specific primers for each gene, as shown in FIG. 3. […] Total RNA was isolated using RNeasy 96 kit (Qiagen) and converted to cDNA using High Capacity cDNA reverse transcription kit (Applied Biosystems). For real time PCR, the cDNA was used for PCR reactions using TaqMan Fast Universal PCR master mix (Applied Biosystems) and specific primers (Applied Biosystems). As housekeeping genes, actin and GAPDH were used for normalization. Data was calculated by the ΔΔCt method and fold change determined compared to DMSO-treated control samples.

[5] = tested on: IFN mediated JAK/STAT pathway (ISG54 promoter); experiment: Activation of the JAK/STAT pathway in HEKBlue IFN-α/β cells (SEAP); type: cell-based; conditions: HEK-Blue; 24 h, QUANTI-Blue, OD 650 nm; read-out: EC50 of activation of the JAK/STAT pathway (secreted alkaline phosphatase)
Method: The cells were incubated for 24 h in the presence of several treatments (Example 1, IFNα, and IFNλ3) and the supernatants were measured for the amount of the secreted alkaline phosphatase using QUANTI-Blue™ (InvivoGen) at the optical density of 650 nm. […] The activation of the pathway by IFNα (PBL) and IFNλ3 (R&D Systems Inc.) are shown as positive controls.

T1 sequence (P23458 whole entry): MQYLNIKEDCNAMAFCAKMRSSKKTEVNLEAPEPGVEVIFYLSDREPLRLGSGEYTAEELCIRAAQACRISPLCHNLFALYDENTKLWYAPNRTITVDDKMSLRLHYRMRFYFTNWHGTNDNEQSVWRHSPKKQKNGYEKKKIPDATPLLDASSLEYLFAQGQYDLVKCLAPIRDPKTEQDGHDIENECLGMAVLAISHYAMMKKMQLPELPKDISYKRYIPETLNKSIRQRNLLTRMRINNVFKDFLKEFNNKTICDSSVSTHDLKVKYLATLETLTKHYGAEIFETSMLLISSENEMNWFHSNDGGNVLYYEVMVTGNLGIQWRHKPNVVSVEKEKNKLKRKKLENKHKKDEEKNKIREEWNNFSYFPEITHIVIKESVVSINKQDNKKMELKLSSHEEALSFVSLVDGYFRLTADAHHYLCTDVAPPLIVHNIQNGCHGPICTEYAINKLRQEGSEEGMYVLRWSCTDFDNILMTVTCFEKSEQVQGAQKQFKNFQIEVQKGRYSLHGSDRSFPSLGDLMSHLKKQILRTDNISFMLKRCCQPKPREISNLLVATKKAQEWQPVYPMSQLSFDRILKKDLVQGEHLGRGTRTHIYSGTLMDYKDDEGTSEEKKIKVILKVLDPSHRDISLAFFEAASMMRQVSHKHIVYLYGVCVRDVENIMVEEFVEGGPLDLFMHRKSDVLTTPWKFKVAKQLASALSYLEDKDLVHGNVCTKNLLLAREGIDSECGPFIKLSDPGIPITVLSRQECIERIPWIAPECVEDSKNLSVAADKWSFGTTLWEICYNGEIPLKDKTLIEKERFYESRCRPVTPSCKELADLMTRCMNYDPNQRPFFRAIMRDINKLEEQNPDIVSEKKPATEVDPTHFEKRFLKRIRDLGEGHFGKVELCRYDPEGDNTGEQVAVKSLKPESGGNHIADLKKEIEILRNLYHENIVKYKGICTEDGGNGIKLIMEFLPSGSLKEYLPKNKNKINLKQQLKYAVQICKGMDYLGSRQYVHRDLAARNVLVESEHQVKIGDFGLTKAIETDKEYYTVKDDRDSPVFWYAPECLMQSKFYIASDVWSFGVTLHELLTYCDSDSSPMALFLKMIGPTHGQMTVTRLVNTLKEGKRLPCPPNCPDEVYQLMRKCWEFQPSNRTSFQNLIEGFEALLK

## FC(F)(F)c1cc(C(F)(F)F)c2ccc3nc(-c4nnco4)cn3c2n1 [Compound 1, 2-[2,4-bis(trifluoromethyl)imidazo[1,2-a]1,8-naphthyridin-8-yl]-1,3,4-oxadiazole]
[1]
  antiviral activity after knockdown of IFNAR2, JAK1, STAT1, or STAT2: affected the antiviral activity
  antiviral activity after knockdown of JAK1: fully abolished
  antiviral activity after knockdown of other Janus kinases (JAKs): did not show any effect
STAT1 phosphorylation; 2 uM
  time up to which phosphor-STAT1 status sustained: up to 24 h
STAT1 phosphorylation; Example 1 2 uM, IFNα 100 U/ml, 1 h, 6 h, 24 h
  STAT1 phosphorylation: induced STAT1 phosphorylation
[2]
  Stat1 phosphorylation (western blot): Stat1 phosphorylation
[3]; 1 μM, compared to DMSO-only
  RSV plaques: reduced the number of plaques
[3]; 5 μM
  RSV plaques: no visible clear plaque
Human JAK1; 10 μM
  CXCL9 expression in U4A cells transduced with JAK1: marked up-regulation
  OAS2 mRNA in parental cell line (2fGH): marked increase
Human JAK1; Example 1 10 μM, IFNα 100 U/ml
  activation of STAT1 in U4A cells transduced with JAK1: activation of STAT1 was observed
  p-STAT1 in U4A cells (JAK1 deficient) transduced with GFP: not present
[4]; 2 μM
  induction of IFNα and β mRNA (IFNA1, IFNA2, IFNB1): no induction
[4]; 2 μM, time course 1.5-48 h
  induction of ISGs (ISG15, Mx1, OAS1, OAS2, CXCL10, IFIH1, STAT2): induction of various known ISGs
[4]; Example 1 2 μM, IFNα 100 U/ml
  time of maximum induction of ISGs: 8 h
[5]
  EC50: ~1000 nM
